{"source": "the NIST ThermoML archive (doi:10.1021/acs.jced.8b00643)", "key": {"[1]": {"settings": "for vapor or sublimation pressure: Transpiration method"}, "[2]": {"assay": "Molar enthalpy of transition or fusion", "settings": "Crystal; DSC"}}, "note": "± gives the expanded uncertainty stated by the source.", "data": [{"smiles": "O=C1NCCCO1", "note": "[tetrahydro-1,3-oxazin-2-one]", "values": [{"measurement": "mass density", "setting": "[1]; 293 K, 101.33 kPa, Crystal, Pycnometric method", "result": "1490 ± 20", "unit": "kg/m3"}, {"measurement": "vapor or sublimation pressure", "setting": "[1]; 327.7 K, Crystal", "result": "0.00023 ± 2e-05", "unit": "kPa"}, {"measurement": "vapor or sublimation pressure", "setting": "[1]; 332.7 K, Crystal", "result": "0.00039 ± 3e-05", "unit": "kPa"}, {"measurement": "vapor or sublimation pressure", "setting": "[1]; 337.7 K, Crystal", "result": "0.00061 ± 5e-05", "unit": "kPa"}, {"measurement": "vapor or sublimation pressure", "setting": "[1]; 342.7 K, Crystal", "result": "0.001 ± 7e-05", "unit": "kPa"}, {"measurement": "vapor or sublimation pressure", "setting": "[1]; 345.7 K, Crystal", "result": "0.00134 ± 0.0001", "unit": "kPa"}, {"measurement": "vapor or sublimation pressure", "setting": "[1]; 348.6 K, Crystal", "result": "0.00167 ± 0.00012", "unit": "kPa"}, {"measurement": "vapor or sublimation pressure", "setting": "[1]; 352.6 K, Crystal", "result": "0.0024 ± 0.00017", "unit": "kPa"}, {"measurement": "vapor or sublimation pressure", "setting": "[1]; 358 K, Liquid", "result": "0.00409 ± 0.00027", "unit": "kPa"}, {"measurement": "vapor or sublimation pressure", "setting": "[1]; 361.3 K, Liquid", "result": "0.00517 ± 0.00036", "unit": "kPa"}, {"measurement": "vapor or sublimation pressure", "setting": "[1]; 365.3 K, Liquid", "result": "0.00677 ± 0.00046", "unit": "kPa"}, {"measurement": "vapor or sublimation pressure", "setting": "[1]; 368 K, Liquid", "result": "0.00807 ± 0.00055", "unit": "kPa"}, {"measurement": "vapor or sublimation pressure", "setting": "[1]; 370.2 K, Liquid", "result": "0.0095 ± 0.00063", "unit": "kPa"}, {"measurement": "vapor or sublimation pressure", "setting": "[1]; 372.8 K, Liquid", "result": "0.01116 ± 0.00073", "unit": "kPa"}, {"measurement": "vapor or sublimation pressure", "setting": "[1]; 377.4 K, Liquid", "result": "0.01498 ± 0.00098", "unit": "kPa"}, {"measurement": "vapor or sublimation pressure", "setting": "[1]; 380.3 K, Liquid", "result": "0.01771 ± 0.0011", "unit": "kPa"}, {"measurement": "vapor or sublimation pressure", "setting": "[1]; 382.2 K, Liquid", "result": "0.02005 ± 0.0013", "unit": "kPa"}, {"measurement": "vapor or sublimation pressure", "setting": "[1]; 385.1 K, Liquid", "result": "0.02395 ± 0.0015", "unit": "kPa"}, {"measurement": "Triple point temperature", "setting": "[1]; Crystal, DSC", "result": "355.3 ± 0.9", "unit": "K"}, {"measurement": "Molar enthalpy of transition or fusion", "setting": "[2]", "result": "3.66 ± 0.263", "unit": "kcal/mol"}]}]}
